Converted amounts (≈) assume the structure as drawn. Blank lines part the entries; values can stand above or below the molecule they belong to.
What was measured:
[1] = tested on: UEA-1 binding sites on Caco-2 cell membrane preparations; assay: Single tier competition assay: inhibition of biotinylated UEA-1 binding, compound and biotinylated UEA-1 incubated together; set-up: species or system human; settings: for Av % Inhibition / Avg % Inhibtion: Single Tier Assay; for Av % Inhibition: library MSI 22; for Avg % Inhibtion: library MSI 26
Description: (§1) The epithelial cell binding ability of compounds and mixtures obtained from synthetic combinatorial libraries was determined by competition assays. These assays were set up to measure the inhibition of binding of biotinylated UEA-1 to membrane preparations of the epithelial cell line Caco-2 (colon carcinoma cells-2), by compounds and mixtures of the combinatorial libraries. This cell line is a conventional model for epithelial cells.
(§2) Two competition inhibition assays were used in this case, namely single tier and two tier assays. These assays differed from each other in that in the single tier assay, the mixtures/compounds and the biotinylated UEA-1 were incubated together with the Caco-2 cell membrane preparations, while in case of the two-tier assay, the mixture/compounds were allowed to incubate alone with the cell membranes in the absence of biotinylated UEA-1, which was added in the next step. Addition of the extra step in the two-tier assay was to ensure that the compounds inhibiting the binding of biotinylated UEA-1 to the Caco-2 cell membranes were doing so by themselves binding to surface receptors on the Caco-2 cells and not to the biotinylated UEA-1. Each assay will be described in detail.
(§3) • 1. Confluent Caco-2 cell monolayers (grown in 75 cm^2 flasks for up to 1 week at 37° C. and 5% CO2) were washed twice in Dulbecco's PBS (DPBS). • 2. Cell monolayers were treated with 10 mM EDTA-DPBS for 5–10 min at 37° C. and cells were harvested by centrifugation at 1000 rpm for 5 min. • 3. Cells were washed 3 times in DPBS. • 4. […] The cells were homogenised for 30 sec. • 6. The homogenates were centrifuged in hard walled tubes at 40,000 rpm for 45 min at 4° C. • 7. […] The supernatant was removed and stored on ice. The procedure was repeated adding the second supernatant to the first. • 8. The protein concentration was determined using e.g. a Bio-Rad protein assay. • 9. All fractions were stored at −80° C. prior to use. Single Tier Assays: • 1. 96-well microtiter plates were coated with membrane preparations of Caco-2 cells either by allowing them to incubate on the plates for 2½ hours at room temperature or by incubating them overnight at 4° C. 100 μl of 10 μg/ml (in 0.05 M carbonate buffer, pH 9.6) of membrane preparation was added to each well. • 2. The plates were flicked out, patted dry and blocked with bovine serum albumin (BSA)/DPBS (200 μl/well) for 1 to 4 hours at room temperature after which they were washed three times in water. • 3. […] Control wells were also set up in which the Caco-2 cell membrane preparations were incubated with unconjugated UEA-1. […] Following overnight incubation the plates were washed thoroughly (3–6 times). The plates were flicked out, patted dry and biotinylated UEA-1 was detected with commercial Streptavidin conjugated to horseradish peroxidase (HRP) (CalBiochem). […] The plates were left to incubate for an hour at room temperature. • 6. The plates were then washed 3–6 times and the biotin-streptavidin binding was detected by adding an HRP substrate OPD (orthophenyl diamine) to each well. 100 μl/well of this substrate at a final concentration of 1.6 mg/ml was added to each well. Before adding to the wells, this substrate was activated by addition of 50 μl of 3% H2O2 per plate and the reaction was allowed to develop in the dark. • 7. The reaction was stopped by adding 50 μl of 4 N H2SO4 to each well after approximately 5–10 minutes or when sufficient colour had developed. The OD490 (absorbance at 490 nm) of each well was measured using a conventional 96 well plate reading spectrophotometer. Two Tier Assays: • 1. 96 well plates were coated with Caco-2 cell membrane preparations in the same manner as described in the single tier assay. • 2. […] 100 μl at these final concentrations were added to each well. • 4. The plates were then left to incubate overnight, a step that would allow the mixtures and compounds to interact with the Caco-2 cell membranes without the presence of the competitor (biotinylated UEA-1) itself. • 5. […]

[2] = tested on: UEA-1 binding sites on Caco-2 cell membrane preparations; assay: Two tier competition assay: compound incubated alone with membranes, biotinylated UEA-1 added in next step; set-up: species or system human; settings: for Av % Inhibition / Avg % Inhibition: Two Tier Assay; for Av % Inhibition: library MSI 22; for Avg % Inhibition: library MSI 26
Description: as §1, §2, §3

[3] = library MSI 27, read-out: Single Tier Assay IC50
[4] = library MSI 27, read-out: Two Tier Assay IC50
[5] = Table 8, galloyl constructs, read-out: IC 50 (uM) 1st tier (converted)
[6] = Table 8, galloyl constructs, read-out: IC 50 (uM) 2nd tier

SMILES: CNC[C@@H](Cc1ccc(OC(=O)OCc2ccccc2Br)cc1)N(C)C[C@H](CC1CCCCC1)NC(=O)c1cc(OC)c(OC)c(OC)c1
Av % Inhibition ([1]; 62.5 μg/ml): −0%
Av % Inhibition ([1]; 250 μg/ml): −11.7%
Av % Inhibition ([2]; 62.5 μg/ml): 39.7%
Av % Inhibition ([2]; 250 μg/ml): 58.9%

SMILES: CCOc1ccc(C[C@H](CNC)N(C)C[C@H](CC2CCCCC2)NC(=O)c2cc(OC)c(OC)c(OC)c2)cc1
Av % Inhibition ([1]; 62.5 μg/ml): −9%
Av % Inhibition ([1]; 250 μg/ml): −55.7%
Av % Inhibition ([2]; 62.5 μg/ml): 49.8%
Av % Inhibition ([2]; 250 μg/ml): 43.8%

SMILES: NC(=O)c1cc(O)c(O)c(O)c1 [3,4,5-trihydroxybenzamide, reference compound]
Avg % Inhibtion ([1]; 62.5 μg/ml): 41.7%
Avg % Inhibtion ([1]; 250 μg/ml): 21%
Avg % Inhibition ([2]; 62.5 μg/ml): 10.7%
Avg % Inhibition ([2]; 250 μg/ml): 41.4%

SMILES: NC(=O)c1cc(O)cc(O)c1 [3,5-dihydroxybenzamide, reference compound]
Avg % Inhibtion ([1]; 62.5 μg/ml): −1%
Avg % Inhibtion ([1]; 250 μg/ml): 2.4%
Avg % Inhibition ([2]; 62.5 μg/ml): −7%
Avg % Inhibition ([2]; 250 μg/ml): −2%

SMILES: O=C(O)c1cc(O)cc(O)c1 [3,5-dihydroxybenzoic Acid, reference compound]
Avg % Inhibtion ([1]; 62.5 μg/ml): 0%
Avg % Inhibtion ([1]; 250 μg/ml): 1.1%
Avg % Inhibition ([2]; 62.5 μg/ml): −5%
Avg % Inhibition ([2]; 250 μg/ml): −7%

IC50 [1, 3]: 495 µM
IC50 [2, 4]: 495 µM
SMILES: COc1cc(C(=O)NCCCCC(NC(=O)c2cc(OC)c(O)c(OC)c2)C(N)=O)cc(OC)c1O (centres unmarked) [Cpd 1]

SMILES: COc1ccc(C(=O)NCCCCC(NC(=O)c2ccc(OC)c(OC)c2)C(N)=O)cc1OC (centres unmarked) [Cpd 2]
Single Tier Assay IC50 ([1]; library MSI 27): 128.20 µg/mL
IC50 [1, 3]: 271 µM
Two Tier Assay IC50 ([2]; library MSI 27): 96.44 µg/mL
IC50 [2, 4]: 204 µM

IC50 [1, 3]: 405 µM
IC50 [2, 4]: 405 µM
SMILES: CCOc1cc(C(=O)NCCCCC(NC(=O)c2cc(OCC)c(OCC)c(OCC)c2)C(N)=O)cc(OCC)c1OCC (centres unmarked) [Cpd 3]

SMILES: COc1cc(C(=O)NCCCCC(NC(=O)c2cc(OC)c(OC)c(OC)c2)C(N)=O)cc(OC)c1OC (centres unmarked) [Cpd 4]
IC50 [1, 3]: 469 µM
IC50 [2, 4]: 469 µM

SMILES: NC(=O)C(CCCCNC(=O)c1cc(O)c(O)c(O)c1)NC(=O)c1cc(O)c(O)c(O)c1 (centres unmarked) [Cpd 6]
IC 50 (ug/ml) 1st tier ([1]; Table 8, galloyl constructs): 11 µg/mL (≈ 24.5 µM)
IC50 [1, 5]: 24 µM
Single Tier Assay IC50 ([1]; library MSI 27): 18.97 µg/mL
IC50 [1, 3]: 42.2 µM
IC 50 (ug/ml) 2nd tier ([2]; Table 8, galloyl constructs): 8 µg/mL (≈ 17.8 µM)
IC50 [2, 6]: 17 µM
Two Tier Assay IC50 ([2]; library MSI 27): 12.97 µg/mL
IC50 [2, 4]: 28.9 µM

IC50 [1, 3]: 649 µM
IC50 [2, 4]: 649 µM
SMILES: NC(=O)C(CCCCNC(=O)c1ccc(O)cc1)NC(=O)c1ccc(O)cc1 (centres unmarked) [Cpd 7]

Single Tier Assay IC50 ([1]; library MSI 27): 125.00 µg/mL
IC50 [1, 3]: 340 µM
Two Tier Assay IC50 ([2]; library MSI 27): 101.20 µg/mL
IC50 [2, 4]: 275 µM
SMILES: COc1cc(C(=O)NCCCCC(NC(C)=O)C(N)=O)cc(OC)c1O (centres unmarked) [Cpd 9]

IC50 [1, 3]: 590 µM
IC50 [2, 4]: 590 µM
SMILES: CCOc1cc(C(=O)NCCCCC(NC(C)=O)C(N)=O)cc(OCC)c1OCC (centres unmarked) [Cpd 11]

SMILES: COc1cc(C(=O)NCCCCC(NC(C)=O)C(N)=O)cc(OC)c1OC (centres unmarked) [Cpd 12]
IC50 [1, 3]: 655 µM
IC50 [2, 4]: 655 µM

SMILES: CC(=O)NC(CCCCNC(=O)c1cc(O)c(O)c(O)c1)C(N)=O (centres unmarked) [Cpd 14]
IC 50 (ug/ml) 1st tier ([1]; Table 8, galloyl constructs): 72 µg/mL (≈ 212 µM)
IC50 [1, 5]: 54 µM
Single Tier Assay IC50 ([1]; library MSI 27): 129.70 µg/mL
IC50 [1, 3]: 382 µM
IC 50 (ug/ml) 2nd tier ([2]; Table 8, galloyl constructs): 211 µg/mL (≈ 622 µM)
IC50 [2, 6]: 160 µM
Two Tier Assay IC50 ([2]; library MSI 27): 91.52 µg/mL
IC50 [2, 4]: 270 µM

From patent US7166296B2, “Pharmaceutical formulations and ligands for use therein; mimetics for UEA-1” (Sarlan, Ltd., priority 2001, dated 2007)
